# According to patent publication US20250041574A1 (TARIS Biomedical LLC, priority 2022, published 2025):
# Like-named read-outs stand apart in the source and are kept apart here.
# How the values were obtained:
# [1] = dynamic vapor sorption
# [2] = not given; remark: listed apart in the source
# [3] = In vitro protein binding in rat urine; format: in vitro ADME
# Method: (§1) Albuminuria/proteinuria had minimal effect on % free form in urine.
# (§2) At the end of 6-hours post-dialysis incubation, drug was analyzed, and the recovery was calculated against the spiked concentrations.
# [4] = In vitro protein binding in human urine; format: in vitro ADME
# Method: as §1, §2
# Stability in rat urine = format: in vitro ADME; settings: freshly collected rat urine, 37° C., 6 hours
# Method: as §2
# [5] = In vitro protein binding in minipig urine; format: in vitro ADME
# Method: as §1, §2
# [6] = tested on: RT-112 orthotopic bladder tumor; test: Continuous bladder perfusion in athymic rats with orthotopic RT-112 bladder tumors
# [7] = urine
# Excerpt: On Day −7 a catheter was surgically placed in the bladder of each animal. The distal end of the catheter was anchored to a subcutaneous site and attached to a vascular access port (VAP). The port was secured, and the animals were allowed to recover. Each animal was subsequently fitted with a portable infusion pump that was attached to the bladder catheter via the VAP. […] All excreted urine was collected in 24-hour intervals through Day 6 or 8. Blood samples were collected daily on study Days 1 to 8. Bladder tissue samples were collected from each animal at necropsy.
# [8] = Stability in minipig urine; format: in vitro ADME; settings: freshly collected minipig urine, 37° C., 6 hours
# Method: as §2
# [9] = rat, in vivo
# Excerpt: Rat bladders (5 groups of rats, n=3/group) were surgically catheterized under anesthesia and the catheter was externalized, tunneled subcutaneously, and connected to a vascular access harness (VAH) in the neck. Rats were transferred to individual metabolic cages with free access to food and water during the 1-week post-surgery recovery period. […] Plasma and bladder samples were collected at all time points.
# [10] = tested on: UM-UC-1 orthotopic bladder tumors; test: Continuous bladder perfusion in athymic rats with orthotopic UM-UC-1 bladder tumors
# Method: Perfusion studies: The bladders of the study animals were cannulated on Day 1 and the animals were allowed to recover for 3 days. On Day 5, UM-UC-1 cells (2×10^6 cells) were injected into the lateral wall of each bladder. […] Based on the in vitro results, target urine concentrations of 0.5, 1.0, and 5.0 μg/mL were used in the perfusion experiments. Body weight, daily urine production, and daily water consumption were recorded. At necropsy, a plasma sample, bladder photographs, and bladder weight measurements were recorded.
# The percent reduction in relative tumor weight between the control group and the drug perfusion groups was determined as an initial measure of efficacy. Bladder tissue and tumor samples were also submitted for analysis of FGFR signaling activity by determining the phosphorylated fibroblast growth factor receptor substrate (FRS)2a levels and the pERK to ERK ratio.
# Stability in human urine = format: in vitro ADME; settings: freshly collected human urine, 37° C., 6 hours
# Method: as §2
smiles,measurement,setting,value
COc1cc(OC)cc(N(CCNC(C)C)c2ccc3ncc(-c4cnn(C)c4)nc3c2)c1.C[C@H](O)C(=O)O [Erdafitinib L-lactate salt],DVS,[1],Non-hygroscopic
same,solubility,as function of pH in water and simulated urine at 37° C.,very high solubility over a broad pH range
same,In Vitro Permeation,[2]; EVA (CoTran 9712),◯
same,In Vitro Permeation,[2]; TPU (EG-80A),Δ
same,In Vitro Permeation,[2]; TPU (HP-60D-35),◯
same,In Vitro Permeation,[2]; TPU (HP-93A-100),◯
"COc1cc(OC)cc(N(CCNC(C)C)c2ccc3ncc(-c4cnn(C)c4)nc3c2)c1 [erdafitinib, N-(3,5-dimethoxyphenyl)-N′-(1-methylethyl)-N-[3-(1-methyl-1H-pyrazol-4-yl)quinoxalin-6-yl]ethane-1,2-diamine]",Percent erdafitinib free in urine,[3],84%
same,Percent erdafitinib free in urine,[4],95%
same,stability in urine,Stability in rat urine,sufficiently stable
same,Percent erdafitinib free in urine,[5],97%
same,bladder weight vs vehicle control,"[6]; 1.0 μg/mL perfusate concentration, p<0.05",significant bladder weight reduction
same,bladder weight decrease vs vehicle control,[6]; 0.25 and 0.5 μg/mL dose groups,not statistically significant
same,percentage change in body weight vs vehicle control,"[6]; 0.5, 1.0 and 5.0 μg/mL treatment groups (so in the source), except Group 4 on Day 11 (p<0.05)",Statistically non-significant difference
same,"body weight loss, maximum mean values","[6]; erdafitinib-treated group, Day 11",up to −3%
same,DVS,[1],Non-hygroscopic
same,"Daily erdafitinib recoveries, of the average daily amount administered",[7],15.7%
same,stability in urine,[8],sufficiently stable
same,AUC0-120h,"[9]; female, Sprague-Dawley, 0.72 mg","127,000 ng · h/mL"
same,C96h,[9],BQL
same,C120h,[9],BQL
same,solubility,normal urine pH range of 5.5 to 7,significant pH-dependent solubility
same,bladder weight vs vehicle control,"[10]; 0.5 (p<0.01), 1.0 and 5 μg/mL (p<0.001) nominal urine concentrations, 5 days perfusion",significant dose-related decrease
same,percentage change in body weight vs vehicle control,"[10]; 0.5, 1.0 and 5.0 μg/mL treatment groups",Statistically non-significant difference
same,cage side observations,"[10]; 5 days continuous perfusion, 0.5, 1.0, 5.0 μg/mL, any treatment group",no visible signs of abnormal behavior or clinical symptoms
same,In Vitro Permeation,[2]; EVA (CoTran 9712),Δ
same,In Vitro Permeation,[2]; TPU (EG-80A),Δ
same,In Vitro Permeation,[2]; TPU (HP-60D-35),◯
same,In Vitro Permeation,[2]; TPU (HP-93A-100),◯
same,stability in urine,Stability in human urine,sufficiently stable
